≈ marks a conversion by molar mass, not a printed value. Where “and” joins values, the source holds several entries; their conditions need not be identical. Identical values can stand only once. Like-named read-outs stand apart in the source and are kept apart here. No end group written: not given here.
Key:
indicator strains = conditions: indicator strain not given; cited from earlier work
A. baumannii LMG01041 [1] = format: cell-based, Acinetobacter baumannii
From the text: (§1) The test of synergistic effect was processed by conducting standard chequerboard broth microdilution assays. Nisin (Drug X) was loaded two fold serially diluted from row 1 to 10 in X-axis while GNPs (Drug Y) were loaded in eight two fold serially diluted concentrations from line A to H in Y-axis (FIG. 1). The original concentrations of peptides were MICs of each. Row 11 are used as growth control with no peptide was included, while row 12 with MHB medium-only wells was included as a sterility control as referred before. 50 uL fresh bacterial suspension was added to well 1-11 and final volume of each well on the plate is 100 uL.
(§2) To determine whether the combination therapy is additive, synergistic or antagonistic, fractional inhibitory concentration (FIC) indices were calculated. FICI=FICa+FICb=MICac/MICa+MICbc/MICb. The MICa/MICb is the MIC of compound A/B alone. MICac is the MIC of compound A in combination with compound B and MICbc is the MIC of compound B when it was combination with compound A. […]. FICa is FIC of compound A while FICb is FIC of compound B. The FICI is interpreted as follows: synergistic, FICI≤0.5; additive, 0.5<FICI<1; indifferent, 1<FICI<2; antagonistic, FICI>2.

A. baumannii LMG01041 [2] = test: microbe, parasite or virus in culture; format: cell-based, Acinetobacter baumannii; conditions: LMG01041
Method: (§3) Escherichia coli, Klebsiella pneumoniae, Pseudomonas aeruginosa, Acinetobacter baumannii, Enterobacter aerogenes were grown in Luria-Bertani (LB) broth shaken (200 rpm) or on LB agar at 37° C. […] MICs tests were performed in duplicate by a liquid growth inhibition microdilution assays in sterilized polypropylene microtiter plates according to Wiegand and […] [27]. […] The suspension was diluted in a ratio of 1:100 using Mueller Hinton Broth (MHB) and the final inoculum is 5*10^5 CFU/mL. […] The antimicrobials were diluted serially by 1/2 one by one and 50 uL diluted bacterial suspension were added to each well to make the final volume to be 100 uL. Growth control was accomplished by remove 10 uL from well 11 and dilute 1000 times to plate 1/10 suspension on the solid medium. […] The number of colonies on the control agar plate should be around 50 to ensure the concentration of the inoculum and the effectiveness of the experiment. The lowest concentration of the antimicrobials that inhibits visible growth of the indicator is identified as MIC.

E. coli LMG15862 [3] = format: cell-based, Escherichia coli
From the text: as §1, §2

P. aeruginosa LMG 6395 [4] = test: microbe, parasite or virus in culture; format: cell-based, Pseudomonas aeruginosa; conditions: LMG 6395
Method: as §3

K. pneumoniae LMG20218 [5] = format: cell-based, Klebsiella pneumoniae
From the text: as §1, §2

L. lactis MG1363 = conditions: MG1363
K. pneumoniae LMG20218 [6] = test: microbe, parasite or virus in culture; format: cell-based, Klebsiella pneumoniae; conditions: LMG20218
Method: as §3

E. coli LMG15862 [7] = system: E. coli LMG15862
Method: (§4) The test of synergistic effect was processed by conducting standard chequerboard broth microdilution assays. […] Row 11 are used as growth control with no peptide was included, while row 12 with MHB medium-only wells was included as a sterility control as referred before. 50 uL fresh bacterial suspension was added to well 1-11 and final volume of each well on the plate is 100 uL.
(§5) The test of synergistic effect was processed as method 1.4.
as §2

K. pneumoniae LMG20218 [8] = system: K. pneumoniae LMG20218
Method: as §4, §5, §2

A. baumannii LMG01041 [9] = conditions: MIC of GNP alone
Method: as §4, §5, §2

P. aeruginosa LMG 6395 [10] = system: P. aeruginosa LMG 6395
Method: as §4, §5, §2

E. aerogenes LMG 02094 [11] = system: E. aerogenes LMG 02094
Method: as §4, §5, §2

E. aerogenes LMG 02094 [12] = format: cell-based, Enterobacter aerogenes
From the text: as §1, §2

E. coli LMG15862 [13] = test: microbe, parasite or virus in culture; format: cell-based, Escherichia coli; conditions: for MICb (GNP concentration when used alone): L-form GNP, E. coli LMG15862, Table 6
Method: as §3

E. aerogenes LMG 02094 [14] = test: microbe, parasite or virus in culture; format: cell-based, Enterobacter aerogenes; conditions: LMG 02094
Method: as §3

P. aeruginosa LMG 6395 [15] = format: cell-based, Pseudomonas aeruginosa
From the text: as §1, §2

[16] = cited from earlier work
Gram-negative pathogens = format: cell-based; conditions: L-form GNPs alone; five Gram-negative pathogens
Method: as §3

[17] = MIC of GNP when used with the MICac concentration of nisin
[18] = MIC of nisin in combination with the GNP at the MICbc concentration
[19] = MIC of GNP in combination with vancomycin at the MICac concentration
[20] = MIC of vancomycin in combination with the GNP at the MICbc concentration

CN[C@H](CC(C)C)C(=O)N[C@H]1C(=O)N[C@@H](CC(N)=O)C(=O)N[C@H]2C(=O)N[C@H]3C(=O)N[C@H](C(=O)N[C@H](C(=O)O)c4cc(O)cc(O)c4-c4cc3ccc4O)[C@H](O)c3ccc(c(Cl)c3)Oc3cc2cc(c3O[C@@H]2O[C@H](CO)[C@@H](O)[C@H](O)[C@H]2O[C@H]2C[C@](C)(NCc3ccc(-c4ccc(Cl)cc4)cc3)[C@H](O)[C@H](C)O2)Oc2ccc(cc2Cl)[C@H]1O [Compound 1, Chlorobiphenyl Vancomycin]
Biological activity (relative to the wild type) (indicator strains): Increased (Increased activity, >120% compared with the activity of vancomycin)

CC[C@H](C)[C@H](NC(=O)[C@H](CCCNC(=N)N)NC(=O)[C@H](CCC(N)=O)NC(=O)[C@@H](NC(=O)[C@@H](NC(=O)[C@@H](N)CCCNC(=N)N)[C@@H](C)CC)C(C)C)C(=O)N[C@@H](CCCCN)C(=O)N[C@@H](CCCCN)C(=O)N[C@@H](Cc1c[nH]c2ccccc12)C(=O)N[C@@H](CC(C)C)C(=O)N[C@@H](CCCNC(=N)N)C(N)=O [GNP-8]
MICb (A. baumannii LMG01041 [1]; MIC of GNP alone): >64 µM | MICbc (A. baumannii LMG01041 [1]; [17]): 4 µM | MICac (A. baumannii LMG01041 [1]; [18]): 0.19 µM | MIC value (A. baumannii LMG01041 [2]): >64 µM | MICb (MIC of GNP alone) (A. baumannii LMG01041 [2]): >64 µM | MICb (E. coli LMG15862 [3]; MIC of GNP alone): 12 µM | MICbc (E. coli LMG15862 [3]; [17]): 1.5 µM | MICac (E. coli LMG15862 [3]; [18]): 1.5 µM | MIC value (P. aeruginosa LMG 6395 [4]): 16 µM (≈ 23.9 µg/mL) | MICb (MIC of GNP alone) (P. aeruginosa LMG 6395 [4]): 16 µM | MICb (K. pneumoniae LMG20218 [5]; MIC of GNP alone): 32 µM | MICbc (K. pneumoniae LMG20218 [5]; [17]): 1 µM | MICac (K. pneumoniae LMG20218 [5]; [18]): 0.75 µM | MIC value of antimicrobial compounds alone (L. lactis MG1363): 24 µM | MIC value (K. pneumoniae LMG20218 [6]): 32 µM (≈ 47.8 µg/mL) | MICb (MIC of GNP alone) (K. pneumoniae LMG20218 [6]): 32 µM | MICb (E. coli LMG15862 [7]; MIC of GNP alone): 12 µM | MICbc (E. coli LMG15862 [7]; [19]): 1.5 µM and 0.75 µM | MICac (E. coli LMG15862 [7]; [20]): 4 µM and 8 µM | MICb (K. pneumoniae LMG20218 [8]; MIC of GNP alone): 32 µM | MICbc (K. pneumoniae LMG20218 [8]; [19]): 2 µM and 1 µM | MICac (K. pneumoniae LMG20218 [8]; [20]): 4 µM and 8 µM | MICb (A. baumannii LMG01041 [9]): >64 µM | MICb (P. aeruginosa LMG 6395 [10]; MIC of GNP alone): 16 µM | MICbc (P. aeruginosa LMG 6395 [10]; [19]): 2 µM and 1 µM | MICac (P. aeruginosa LMG 6395 [10]; [20]): 8 µM and 16 µM | MICb (E. aerogenes LMG 02094 [11]; MIC of GNP alone): 128 µM | MICbc (E. aerogenes LMG 02094 [11]; [19]): 8 µM and 16 µM | MICac (E. aerogenes LMG 02094 [11]; [20]): 12 µM and 6 µM | MICb (E. aerogenes LMG 02094 [12]; MIC of GNP alone): 128 µM | MICbc (E. aerogenes LMG 02094 [12]; [17]): 1 µM | MICac (E. aerogenes LMG 02094 [12]; [18]): 4 µM | MICb (GNP concentration when used alone) (E. coli LMG15862 [13]): 12 µM | MIC value (E. coli LMG15862 [13]; LMG15862): 12 µM (≈ 17.9 µg/mL) | MIC value (E. aerogenes LMG 02094 [14]): 128 µM (≈ 191 µg/mL) | MICb (MIC of GNP alone) (E. aerogenes LMG 02094 [14]): 128 µM | MICb (P. aeruginosa LMG 6395 [15]; MIC of GNP alone): 16 µM | MICbc (P. aeruginosa LMG 6395 [15]; [17]): 0.5 µM | MICac (P. aeruginosa LMG 6395 [15]; [18]): 4.5 µM

CCCCCCCCCCNCCN[C@@]1(C)C[C@H](O[C@H]2[C@H](Oc3c4cc5cc3Oc3ccc(cc3Cl)[C@@H](O)[C@@H](NC(=O)[C@@H](CC(C)C)NC)C(=O)N[C@@H](CC(N)=O)C(=O)N[C@H]5C(=O)N[C@H]3C(=O)N[C@H](C(=O)N[C@H](C(=O)O)c5cc(O)c(CNCP(=O)(O)O)c(O)c5-c5cc3ccc5O)[C@H](O)c3ccc(c(Cl)c3)O4)O[C@H](CO)[C@@H](O)[C@@H]2O)O[C@@H](C)[C@H]1O [Telavancin]
Biological activity (relative to the wild type) (indicator strains): Increased (Increased activity, >120% compared with the activity of vancomycin)

Chlorobiphenyl Des-methyl vancomycin [Compound 8]
Biological activity (relative to the wild type) (indicator strains): Increased (Increased activity, >120% compared with the activity of vancomycin)

K12V (ITSISLCTPGCVTGALMGCNMKTATCHCSIHVSK; cysteine pairing not given here; also: lantibiotic nisin-A; UniProt P13068 24-57, looked up, variant K12V)
Biological activity (relative to the wild type) ([16]; gene nisA (nisin A mutants)): Increased (Increased activity, >120% compared to the activity of wild type nisin A/Z)

K22S (ITSISLCTPGCKTGALMGCNMSTATCHCSIHVSK; cysteine pairing not given here; also: lantibiotic nisin-A; UniProt P13068 24-57, looked up, variant K22S)
Biological activity (relative to the wild type) ([16]; gene nisA (nisin A mutants)): Increased (Increased activity, >120% compared to the activity of wild type nisin A/Z)

M21V (ITSISLCTPGCKTGALMGCNVKTATCHCSIHVSK; cysteine pairing not given here; also: lantibiotic nisin-A; UniProt P13068 24-57, looked up, variant M21V)
Biological activity (relative to the wild type) ([16]; gene nisA (nisin A mutants)): Increased (Increased activity, >120% compared to the activity of wild type nisin A/Z)

N20P (ITSISLCTPGCKTGALMGCPMKTATCHCSIHVSK; not fully specified; cysteine pairing not given here; also: lantibiotic nisin-A; UniProt P13068 24-57, looked up, variant N20P)
Biological activity (relative to the wild type) ([16]; gene nisA (nisin A mutants)): Increased (Increased activity, >120% compared to the activity of wild type nisin A/Z)

N20V (ITSISLCTPGCKTGALMGCVMKTATCHCSIHVSK; not fully specified; cysteine pairing not given here; also: lantibiotic nisin-A; UniProt P13068 24-57, looked up, variant N20V)
Biological activity (relative to the wild type) ([16]; gene nisZ (nisin Z mutants)): Increased (Increased activity, >120% compared to the activity of wild type nisin A/Z)

RIWVIWRR-NH2 [GNP-5]
MICb (MIC of GNP alone) (A. baumannii LMG01041 [2]): 2 µM | MICb (MIC of GNP alone) (P. aeruginosa LMG 6395 [4]): 3 µM | MICb (MIC of GNP alone) (K. pneumoniae LMG20218 [6]): 6 µM | Activity ranking amongst all the GNPs (Gram-negative pathogens): most potent | MICb (GNP concentration when used alone) (E. coli LMG15862 [13]): 3 µM | MICb (MIC of GNP alone) (E. aerogenes LMG 02094 [14]): 5 µM

Teicoplanin [2a]
Biological activity (relative to the wild type) (indicator strains): Increased (Increased activity, >120% compared with the activity of vancomycin)

From patent US20200368315A1, “ANTIMICROBIAL PEPTIDES AND ADMIXTURES THEREOF SHOWING ANTIMICROBIAL ACTIVITY AGAINST GRAM-NEGATIVE PATHOGENS” (priority 2017, published 2020)
